According to patent publication US20240319156A1, “DEVICE FOR TESTING VAPORIZABLE FLUIDS IN A HUMAN AIRWAY MODEL” (Rowan University, priority 2022, published 2024):

Test system: human airway model tissue
Details: e-cigarette vapor exposure day 20 to day 34; vs untreated 'no battery' tissue
From the text: The investigation compared how human airway model tissue was affected by e-cigarette vapors generated from two different vape-liquids, propylene glycol/vegetable glycerin ‘PG:VG’, and vitamin E acetate ‘VEA’.
Referring to FIGS. 30A-30B, illustration of experimental design used in research investigation, human airway model tissues were formed from day 0 to day 20, tissues were exposed to experimental vapors from day 20 to day 34.

CC(=O)Oc1c(C)c(C)c2c(c1C)CCC(C)(CCC[C@H](C)CCC[C@H](C)CCCC(C)C)O2 (stereo partly shown) [VEA, vitamin E acetate]
tissue morphology in stained cross-sections: present typical structure and are undamaged
